Numbered stars: 1 amine (or outer) side, 2 acyl side, 3 side chain; on linkers, the order of the positions; unused ones are H or OH. Square brackets hold non-standard residues; d marks the D form. Side chains are listed from the residue outwards. Peptide text beside a SMILES is read from it. * marks the point of attachment. C18 diacid = O=C(O)CCCCCCCCCCCCCCCCC(=O)*; γGlu = O=C(O)[C@H](CCC(=O)[*:2])N[*:1]; Ac4c = NC1(C(=O)O)CCC1; AEEA = NCCOCCOCC(=O)O; Aib = CC(C)(N)C(=O)O

T1 sequence (P47871 26-477): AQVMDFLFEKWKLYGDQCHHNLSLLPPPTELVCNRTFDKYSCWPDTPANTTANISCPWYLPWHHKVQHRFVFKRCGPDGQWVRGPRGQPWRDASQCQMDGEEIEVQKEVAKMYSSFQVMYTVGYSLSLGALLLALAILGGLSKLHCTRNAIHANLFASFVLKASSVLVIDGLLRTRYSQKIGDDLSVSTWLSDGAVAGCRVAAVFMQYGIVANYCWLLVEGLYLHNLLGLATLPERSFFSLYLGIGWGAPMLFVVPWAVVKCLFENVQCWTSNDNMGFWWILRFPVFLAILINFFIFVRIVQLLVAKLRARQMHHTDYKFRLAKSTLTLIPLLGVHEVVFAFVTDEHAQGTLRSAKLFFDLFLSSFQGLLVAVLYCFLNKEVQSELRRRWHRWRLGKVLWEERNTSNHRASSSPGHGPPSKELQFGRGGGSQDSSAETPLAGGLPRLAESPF

This assay has as its target T1, human glucagon receptor (Homo sapiens, UniProt P47871).
T1 construct: expressed in transfected cells; host or cells: BHK cells (parent BHK570, CRE luciferase clone BHK/KZ10-20-48), clone pLJ6'-4-25
Description: Glucagon receptor binding, 125I-glucagon displacement SPA on isolated membranes. The settings on record: displacement of 125I-glucagon from membranes; read-out: IC50 GlucR. The method, boiled down: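 Displacement IC50 derived by non-linear regression of SPA counts after 2 h, 25 °C incubation of compound with [125I]-glucagon (480 pM solution, 25 μl) and membranes of hGCGR-transfected BHK cells. Buffer was HEPES pH 7.4 with ovalbumin; serum albumin was held at 0.001% max or 0.2% final.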
For orientation: Displacement assays read how much labelled ligand stays bound in the presence of the test substance.
What is called IC50 is the concentration needed to halve the response being measured. Consider `CC(C)C[C@H](NC(=O)[C@H](CC(=O)O)NC(=O)[C@H](CC(C)C)NC(=O)[C@H](Cc1ccc(O)cc1)NC(=O)[C@H](CCCNC(=N)N)NC(=O)[C@H](CO)NC(=O)[C@H](CC(C)C)NC(=O)[C@H](CC(=O)O)NC(=O)[C@H](CO)NC(=O)[C@@H](NC(=O)[C@H](Cc1ccccc1)NC(=O)[C@@H](NC(=O)CNC(=O)[C@H](CCC(N)=O)NC(=O)C1(NC(=O)[C@@H](N)Cc2c[nH]cn2)CCC1)[C@@H](C)O)[C@@H](C)O)C(=O)N[C@@H](CCCNC(=N)N)C(=O)N[C@@H](CCCNC(=N)N)C(=O)N[C@@H](C)C(=O)N[C@@H](CCCNC(=N)N)C(=O)N[C@@H](CC(=O)O)C(=O)N[C@@H](Cc1ccccc1)C(=O)N[C@H](C(=O)N[C@@H](CCC(N)=O)C(=O)N[C@@H](Cc1c[nH]c2ccccc12)C(=O)N[C@@H](CC(C)C)C(=O)N[C@@H](CC(C)C)C(=O)N[C@@H](CCCCNC(=O)CC[C@H](NC(=O)CC[C@H](NC(=O)COCCOCCNC(=O)COCCOCCNC(=O)CC[C@H](NC(=O)CC[C@H](NC(=O)CCCCCCCCCCCCCCCCC(=O)O)C(=O)O)C(=O)O)C(=O)O)C(=O)O)C(=O)N[C@H](C(N)=O)[C@@H](C)O)C(C)C` [Example 46, N^ε28-[(4S)-4-carboxy-4-[[(4S)-4-carboxy-4-[[2-[2-[2-[[2-[2-[2-[[(4S)-4-carboxy-4-[[(4S)-4-carboxy-4-(17-carboxyheptadecanoylamino)butanoyl]amino]butanoyl]amino]ethoxy]ethoxy]acetyl]amino]ethoxy]ethoxy]acetyl]amino]butanoyl]amino]butanoyl]-[Acb2,Leu10,Arg12,Leu16,Arg20,Leu27,Lys28]-Glucagon amide] (H-H[Ac4c]QGTFTSDLSRYLDLRRARDFVQWLLK([γGlu-γGlu-AEEA-AEEA-γGlu-γGlu-C18 diacid])T-NH2; N-terminus assumed), for which the IC50 turned out to be 8.5 nM.
Consider `CC(C)C[C@H](NC(=O)[C@H](CC(=O)O)NC(=O)[C@H](CC(C)C)NC(=O)[C@H](Cc1ccc(O)cc1)NC(=O)[C@H](CCCCN)NC(=O)[C@H](CO)NC(=O)[C@H](CC(C)C)NC(=O)[C@H](CC(=O)O)NC(=O)[C@H](CO)NC(=O)[C@@H](NC(=O)[C@H](Cc1ccccc1)NC(=O)[C@@H](NC(=O)CNC(=O)[C@H](CCC(N)=O)NC(=O)C1(NC(=O)[C@@H](N)Cc2c[nH]cn2)CCC1)[C@@H](C)O)[C@@H](C)O)C(=O)N[C@@H](CCCCN)C(=O)N[C@@H](CCCNC(=N)N)C(=O)N[C@@H](C)C(=O)N[C@@H](CCCNC(=N)N)C(=O)N[C@@H](CCC(=O)O)C(=O)N[C@@H](Cc1ccccc1)C(=O)N[C@H](C(=O)N[C@@H](CCC(N)=O)C(=O)N[C@@H](Cc1c[nH]c2ccccc12)C(=O)N[C@@H](CC(C)C)C(=O)N[C@@H](CC(C)C)C(=O)N[C@@H](CCCCNC(=O)CC[C@H](NC(=O)CC[C@H](NC(=O)COCCOCCNC(=O)COCCOCCNC(=O)CC[C@H](NC(=O)CC[C@H](NC(=O)CCCCCCCCCCCCCCCCC(=O)O)C(=O)O)C(=O)O)C(=O)O)C(=O)O)C(=O)N[C@H](C(N)=O)[C@@H](C)O)C(C)C` [Example 47, N^ε28-[(4S)-4-carboxy-4-[[(4S)-4-carboxy-4-[[2-[2-[2-[[2-[2-[2-[[(4S)-4-carboxy-4-[[(4S)-4-carboxy-4-(17-carboxyheptadecanoylamino)butanoyl]amino]butanoyl]amino]ethoxy]ethoxy]acetyl]amino]ethoxy]ethoxy]acetyl]amino]butanoyl]amino]butanoyl]-[Acb2,Leu10,Leu16,Lys17,Arg20,Glu21,Leu27,Lys28]-Glucagon amide] (H-H[Ac4c]QGTFTSDLSKYLDLKRAREFVQWLLK([γGlu-γGlu-AEEA-AEEA-γGlu-γGlu-C18 diacid])T-NH2; N-terminus assumed), for which the IC50 turned out to be 1.5 nM.
Under `CC(C)C[C@H](NC(=O)[C@H](CC(=O)O)NC(=O)[C@H](CC(C)C)NC(=O)[C@H](Cc1ccc(O)cc1)NC(=O)[C@H](CCCCN)NC(=O)[C@H](CO)NC(=O)[C@H](CC(C)C)NC(=O)[C@H](CC(=O)O)NC(=O)[C@H](CO)NC(=O)[C@@H](NC(=O)[C@H](Cc1ccccc1)NC(=O)[C@@H](NC(=O)CNC(=O)[C@H](CCC(N)=O)NC(=O)C1(NC(=O)[C@@H](N)Cc2c[nH]cn2)CCC1)[C@@H](C)O)[C@@H](C)O)C(=O)N[C@@H](CCCNC(=N)N)C(=O)N[C@@H](CCCNC(=N)N)C(=O)N[C@@H](C)C(=O)N[C@@H](CCCNC(=N)N)C(=O)N[C@@H](CCC(=O)O)C(=O)N[C@@H](Cc1ccccc1)C(=O)N[C@H](C(=O)N[C@@H](CCC(N)=O)C(=O)N[C@@H](Cc1c[nH]c2ccccc12)C(=O)N[C@@H](CC(C)C)C(=O)N[C@@H](CC(C)C)C(=O)N[C@@H](CCCCNC(=O)CC[C@H](NC(=O)CC[C@H](NC(=O)COCCOCCNC(=O)COCCOCCNC(=O)CC[C@H](NC(=O)CC[C@H](NC(=O)CCCCCCCCCCCCCCCCC(=O)O)C(=O)O)C(=O)O)C(=O)O)C(=O)O)C(=O)N[C@H](C(N)=O)[C@@H](C)O)C(C)C` [Example 49, N^ε28-[(4S)-4-carboxy-4-[[(4S)-4-carboxy-4-[[2-[2-[2-[[2-[2-[2-[[(4S)-4-carboxy-4-[[(4S)-4-carboxy-4-(17-carboxyheptadecanoylamino)butanoyl]amino]butanoyl]amino]ethoxy]ethoxy]acetyl]amino]ethoxy]ethoxy]acetyl]amino]butanoyl]amino]butanoyl]-[Acb2,Leu10,Leu16,Arg20,Glu21,Leu27,Lys28]-Glucagon amide] (H-H[Ac4c]QGTFTSDLSKYLDLRRAREFVQWLLK([γGlu-γGlu-AEEA-AEEA-γGlu-γGlu-C18 diacid])T-NH2; N-terminus assumed) stands 1.7 nM.
With `CC(C)C[C@H](NC(=O)[C@H](Cc1c[nH]c2ccccc12)NC(=O)[C@H](CCC(N)=O)NC(=O)[C@@H](NC(=O)[C@H](Cc1ccccc1)NC(=O)[C@H](CCC(=O)O)NC(=O)[C@H](CCCNC(=N)N)NC(=O)[C@H](C)NC(=O)[C@H](CCCNC(=N)N)NC(=O)[C@H](CCCNC(=N)N)NC(=O)C(C)(C)NC(=O)[C@H](CC(=O)O)NC(=O)[C@H](CC(C)C)NC(=O)[C@H](Cc1ccc(O)cc1)NC(=O)[C@H](CCCCN)NC(=O)[C@H](CO)NC(=O)[C@H](CC(C)C)NC(=O)[C@H](CC(=O)O)NC(=O)[C@H](CO)NC(=O)[C@@H](NC(=O)[C@H](Cc1ccccc1)NC(=O)[C@@H](NC(=O)CNC(=O)[C@H](CCC(N)=O)NC(=O)C(C)(C)NC(=O)[C@@H](N)Cc1c[nH]cn1)[C@@H](C)O)[C@@H](C)O)C(C)C)C(=O)N[C@@H](CC(C)C)C(=O)N[C@@H](CCCCNC(=O)CC[C@H](NC(=O)CC[C@H](NC(=O)COCCOCCNC(=O)COCCOCCNC(=O)CC[C@H](NC(=O)CCCCCCCCCCCCCCCCC(=O)O)C(=O)O)C(=O)O)C(=O)O)C(=O)N[C@H](C(N)=O)[C@@H](C)O` [Example 51, N^ε28-[(4S)-4-carboxy-4-[[(4S)-4-carboxy-4-[[2-[2-[2-[[2-[2-[2-[[(4S)-4-carboxy-4-(17-carboxyheptadecanoylamino)butanoyl]amino]ethoxy]ethoxy]acetyl]amino]ethoxy]ethoxy]acetyl]amino]butanoyl]amino]butanoyl]-[Aib2,Leu10,Aib16,Arg20,Glu21,Leu27,Lys28]-Glucagon amide] (H-H[Aib]QGTFTSDLSKYLD[Aib]RRAREFVQWLLK([γGlu-γGlu-AEEA-AEEA-γGlu-C18 diacid])T-NH2; N-terminus assumed), the IC50 is 1.4 nM.

(Values after US9474790B2, “Stable, protracted GLP-1/glucagon receptor co-agonists for medical use” (Novo Nordisk A/S, priority 2013, dated 2016).)
